Test results as given in patent US20220096505A1, “PHARMACEUTICAL COMPOSITION, METHODS FOR TREATING AND USES THEREOF” (Boehringer Ingelheim International GmbH, priority 2011, published 2022).

What was measured:
[1] = in vivo; cited from earlier work
[2] = metformin on its own, in the diabetic; cited from earlier work
[3] = Particle size distribution measurement by laser diffraction; assay type: physicochemical; settings: milled active substance
From the text: The value X90 refers to the 90% value of the volume distribution measured using a laser diffractometer. In other words, for the purposes of the present invention, the X90 value denotes the particle size below which 90% of the quantity of particles is found based on the volume distribution. Analogously the value X50 refers to the 50% value (median) of the volume distribution measured using a laser diffractometer. In other words, for the purposes of the present invention, the X50 value denotes the particle size below which 50% of the quantity of particles is found based on the volume distribution. Analogously the value X10 refers to the 10% value of the volume distribution measured using a laser diffractometer. In other words, for the purposes of the present invention, the X10 value denotes the particle size below which 10% of the quantity of particles is found based on the volume distribution.
Preferably all X90, X50, X10 values hereinbefore and hereinafter are by volume and determined by laser-diffraction method, in particular low angle laser light scattering, i.e. Fraunhofer diffraction. A preferred test is described in the experimental section. The laser diffraction method is sensitive to the volume of a particle and provides a volume-average particle size, which is equivalent to the weight-average particle size if the density is constant. The skilled artesian knows that the results of the particle size distribution determination by one technique can be correlated with that from another technique, for example on an empirical basis by routine experimentation. Alternatively the particle size distribution in the pharmaceutical composition or dosage form can be determined by microscopy, in particular electron microscopy or scanning electron microscopy.
Examples of typical particle size distribution values X90, X50 and X10 for the preferred active pharmaceutical ingredient according to the invention are shown in the table below.
3. Particle Size Distribution Measurement by Laser Diffraction
Particle size distribution measurement is performed for example via light scattering or laser diffraction technique. To determine the particle size the powder is fed into a laser diffraction spectrometer for example by means of a dispersing unit. The test method is described below in detail:
Equipment: Laser Diffraction Spectrometer Sympatec HELOS Particle Sizer.
Lens: R31 (0.5/0.9 μm-175 μm) Sample Dispersing Unit: Dry disperser RODOS/M
Feed Velocity: 60.00 mm/s Primary pressure: 2.00 bar Injector depression: maximize (mbar)2 Reference Measurement: 10 seconds Cycle Time: 100 msec Trigger Conditions: Start 0.0 seconds after optical concentration ≥1% valid always Stop after 5.0 seconds optical concentration ≤1% or after 30 seconds real time Optical Concentration: Approximately range 3-12%
Number of measurements: 2 (duplicate)
The instrument is set up according to the manufacturer's recommendation and using the manufacturer provided software. The sample container is thoroughly mixed and tumbled prior to removing a portion of the sample to ensure that a representative sample is tested. Duplicate samples are prepared by using a spatula to transfer approximately 100 mg of a sample into the ASPIROS glass vials and cap the vials. The capped cials are placed into the feeder.

[4] = listed as Active substance Batch 1
[5] = listed as Active substance Batch 2

Q: For `CC#CCn1c(N2CCC[C@@H](N)C2)nc2c1c(=O)n(Cc1nc(C)c3ccccc3n1)c(=O)n2C` [linagliptin], which route of excretion [1] is on record?
A: primarily excreted by bile and the gut

Q: For `CN(C)C(=N)N=C(N)N` [metformin], which “average improvement in the HbA1c value” [2] is on record?
A: 1.0-1.5%

Q: For “1-chloro-4-(β-D-glucopyranos-1-yl)-2-[4-((S)-tetrahydrofuran-3-yloxy)-benzyl]-benzene [compound (I.9)]”, which “X10 (10% value of the volume distribution, particle size)” value [3, 4] is on record?
A: 1.8 μm

Q: What about the “X50 (50% value, median, of the volume distribution, particle size)” value [3, 4] of the same molecule?
A: 18.9 μm

Q: And the “X90 (90% value of the volume distribution, particle size)” value [3, 4]?
A: 45.3 μm

Q: What about the “X10 (10% value of the volume distribution, particle size)” value [3, 5] of the same molecule?
A: 1.7 μm

Q: What about the “X50 (50% value, median, of the volume distribution, particle size)” value [3, 5] of the same molecule?
A: 12.1 μm

Q: What about the “X90 (90% value of the volume distribution, particle size)” value [3, 5] of the same molecule?
A: 25.9 μm
